For 30 compounds, TGI and GI50 results are on record in PubChem BioAssay (NCI).

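Method: 48-hour compound exposure of cells in 96-well plates, five concentrations, linear interpolation of endpoints. Abbreviation: GI50, concentration required for 50% inhibition of growth. The concentration for full growth arrest is given as TGI.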

One test has as its system UACC-257 melanoma. Put plainly: NCI-60 cell line screen, 48 h.
As for `COc1ccc2c(C)cc(=O)oc2c1OC`, the TGI is > 100 µM.
Same read-out and setting: in the case of `CN(C)c1ccc(S(=O)Nc2ccccc2)cc1` (stereo unspecified) it was 92.9 µM; in that of `COc1ccc2c(c1)OCC1Cc3ccccc3OC21` (stereo unspecified), > 100 µM; in that of `Cc1cc2c3c(nc4ccccc42)C(=O)c2ccccc2-c3n1`, > 100 µM.
Regarding `CCOC(=O)c1c(C)nc2c3ccccc3c(C#N)c(C)n12`, the TGI is > 100 µM.
For the compound `Cc1ccc(C(=C2Sc3ccccc3S2)C(=C2Sc3ccccc3S2)c2ccc(C)s2)s1`, the TGI was > 100 µM.
On the same count and under the same terms, in the case of `CCOC(=O)c1cn2c(nc1=O)N[C@H]1CCCC[C@@H]12` it was > 100 µM; in that of `CC1=NS(=O)(=O)c2ccccc2N1`, > 100 µM; in that of `COP(=O)(/C=C/c1cc(C(=O)OCc2ccccc2)n(S(=O)(=O)c2ccccc2)c1)OC`, > 100 µM.
On the same count and under the same terms, to `COc1ccc(NC(=O)CC(=O)N2N=C(N3c4ccccc4Sc4ccccc43)CC2c2ccccc2)cc1` (stereo unspecified) belongs > 100 µM.
Still for that read-out and setting: in the case of `CCNC(=O)Cc1nc2c(N)ncnc2n1C1OC(CO)C(O)C1O` (stereo unspecified) it was > 100 µM; in that of `COc1ccc(C2=N/C(=C\c3ccccc3)C(=O)O2)cc1`, > 100 µM; in that of `Cc1nc(N)c(N2CCN([N+](=O)[O-])CC2)c(=O)[nH]1`, > 100 µM.
`CSc1nsc(-c2ccccc2)[s+]1`: the TGI is > 100 µM.
On the same count and under the same terms, in the case of `Oc1ccc([I+]c2ccccc2)cc1O` it was > 100 µM; in that of `Cc1ccc(-c2[nH]c(=O)n(C3OC(CO)C(O)C(O)C3O)c(=O)c2C#N)cc1` (stereo unspecified), > 100 µM; in that of `CCN(CC)CCN(C(=Nc1ccccc1)N1CCOCC1)c1ccccc1`, > 100 µM.
For the compound `Cc1cc(C(=O)CCCCOc2ccc(C3=NCCO3)cc2)c(C)n1C`, the TGI is > 100 µM.

For a further test, the system named is ACHN renal. Put plainly: NCI-60 cell line screen, 48 h.
On to `O=C1NCC2(CCN(CCCC3(c4ccc(F)cc4)OCCO3)CC2)N1c1ccccc1`, for which the TGI is > 100 µM.
On to `O=C1c2ccccc2-c2c1c(-c1ccc(F)cc1)nc1ccc3ccccc3c21`, for which the TGI was > 100 µM.
Same read-out and setting: in the case of `O=C(Nc1nccs1)c1c(O)nc2sccn2c1=O` it was > 10 µM; in that of `O=C1NCCN1/N=C/c1c(Cl)n(-c2ccccc2)c2ccccc12`, 62 µM.
For the compound `CO[C@H]1/C=C(/C)CCC[C@H](C)[C@H](O)[C@@H](C)C(=O)C(C)(C)[C@@H](O)CC(=O)O[C@@H]1/C(C)=C/c1csc(C)n1`, the GI50 was 0.0555 µM and the TGI is > 100 µM.
As to `CCC1(CC)C(=O)NN(C(=O)c2ccccc2)C1=O`, the TGI was > 100 µM.
Regarding `CC1CCC(C(=O)O)(C(Br)C(=O)O)CC1` (stereo unspecified), the TGI is > 100 µM.
`COc1cc(NS(C)(=O)=O)ccc1Nc1cc(C)[nH]c2ccc3nccc3c12`: the TGI is > 100 µM.
On the same count and under the same terms, to `CN(C)c1ccc(C(=N/N=C2\C(=O)Nc3ccccc32)c2ccc(N(C)C)cc2)cc1` belongs 40.8 µM.
On the same count and under the same terms, to `CCCC(=O)OC1CC(n2cc(F)c(=O)[nH]c2=O)OC1COP(=O)(OCC(Cl)(Cl)Cl)OCC(Cl)(Cl)Cl` (stereo unspecified) belongs > 96 µM; to `O=[N+]([O-])C(/C=C(\Cl)n1nnc2ccccc21)=C(/Cl)n1nnc2ccccc21`, > 100 µM; to `N#Cc1c(-c2ccccc2)/c(=C\Nc2ccc(F)cc2)c(=O)n2c1nc1ccccc12`, > 100 µM.
Same read-out and setting: to `COc1ccc2c(C)cc(=O)oc2c1OC` belongs > 100 µM; to `CN(C)c1ccc(S(=O)Nc2ccccc2)cc1` (stereo unspecified), > 100 µM.
With `COc1ccc2c(c1)OCC1Cc3ccccc3OC21` (stereo unspecified), the TGI was > 100 µM.
With `Cc1cc2c3c(nc4ccccc42)C(=O)c2ccccc2-c3n1`, the TGI is > 100 µM.
Same read-out and setting: to `CCOC(=O)c1c(C)nc2c3ccccc3c(C#N)c(C)n12` belongs > 100 µM; to `Cc1ccc(C(=C2Sc3ccccc3S2)C(=C2Sc3ccccc3S2)c2ccc(C)s2)s1`, > 100 µM; to `CCOC(=O)c1cn2c(nc1=O)N[C@H]1CCCC[C@@H]12`, > 100 µM.
Regarding `CC1=NS(=O)(=O)c2ccccc2N1`, the TGI was > 100 µM.
The same measure, in the same setting: to `COP(=O)(/C=C/c1cc(C(=O)OCc2ccccc2)n(S(=O)(=O)c2ccccc2)c1)OC` belongs > 100 µM; to `COc1ccc(NC(=O)CC(=O)N2N=C(N3c4ccccc4Sc4ccccc43)CC2c2ccccc2)cc1` (stereo unspecified), > 100 µM.
Take `CCNC(=O)Cc1nc2c(N)ncnc2n1C1OC(CO)C(O)C1O` (stereo unspecified): the TGI is > 100 µM.
Still for that read-out and setting: in the case of `COc1ccc(C2=N/C(=C\c3ccccc3)C(=O)O2)cc1` it was > 100 µM; in that of `Cc1nc(N)c(N2CCN([N+](=O)[O-])CC2)c(=O)[nH]1`, > 100 µM; in that of `CSc1nsc(-c2ccccc2)[s+]1`, > 100 µM.
Take `Oc1ccc([I+]c2ccccc2)cc1O`: the TGI was > 100 µM.
In the case of `Cc1ccc(-c2[nH]c(=O)n(C3OC(CO)C(O)C(O)C3O)c(=O)c2C#N)cc1` (stereo unspecified), the TGI is > 100 µM.
Still for that read-out and setting: to `Cc1cc(C(=O)CCCCOc2ccc(C3=NCCO3)cc2)c(C)n1C` belongs > 100 µM.

The subject of another test is MCF7 breast. Put plainly: NCI-60 cell line screen, 48 h.
Turning to `O=C1c2ccccc2-c2c1c(-c1ccc(F)cc1)nc1ccc3ccccc3c21`, the TGI is > 100 µM.
The same measure, in the same setting: to `O=C(Nc1nccs1)c1c(O)nc2sccn2c1=O` belongs > 10 µM; to `O=C1NCCN1/N=C/c1c(Cl)n(-c2ccccc2)c2ccccc12`, 67.3 µM.
`CO[C@H]1/C=C(/C)CCC[C@H](C)[C@H](O)[C@@H](C)C(=O)C(C)(C)[C@@H](O)CC(=O)O[C@@H]1/C(C)=C/c1csc(C)n1`: the GI50 was < 0.01 µM and the TGI is > 100 µM.
Turning to `CCC1(CC)C(=O)NN(C(=O)c2ccccc2)C1=O`, the TGI is > 100 µM.
On the same count and under the same terms, to `COc1cc(NS(C)(=O)=O)ccc1Nc1cc(C)[nH]c2ccc3nccc3c12` belongs > 100 µM.
Still for that read-out and setting: to `CN(C)c1ccc(C(=N/N=C2\C(=O)Nc3ccccc32)c2ccc(N(C)C)cc2)cc1` belongs 2.72 µM.
Still for that read-out and setting: in the case of `CCCC(=O)OC1CC(n2cc(F)c(=O)[nH]c2=O)OC1COP(=O)(OCC(Cl)(Cl)Cl)OCC(Cl)(Cl)Cl` (stereo unspecified) it was > 100 µM; in that of `N#Cc1c(-c2ccccc2)/c(=C\Nc2ccc(F)cc2)c(=O)n2c1nc1ccccc12`, > 100 µM.
Consider `COc1ccc2c(C)cc(=O)oc2c1OC`, for which the TGI is > 100 µM.
Same read-out and setting: in the case of `CN(C)c1ccc(S(=O)Nc2ccccc2)cc1` (stereo unspecified) it was > 100 µM; in that of `COc1ccc2c(c1)OCC1Cc3ccccc3OC21` (stereo unspecified), > 100 µM.
`Cc1cc2c3c(nc4ccccc42)C(=O)c2ccccc2-c3n1` came in with a TGI of 51.2 µM.
For `CCOC(=O)c1c(C)nc2c3ccccc3c(C#N)c(C)n12`, the TGI is > 100 µM.
Consider `Cc1ccc(C(=C2Sc3ccccc3S2)C(=C2Sc3ccccc3S2)c2ccc(C)s2)s1`, for which the TGI was > 100 µM.
On the same count and under the same terms, to `CCOC(=O)c1cn2c(nc1=O)N[C@H]1CCCC[C@@H]12` belongs > 100 µM; to `COP(=O)(/C=C/c1cc(C(=O)OCc2ccccc2)n(S(=O)(=O)c2ccccc2)c1)OC`, > 100 µM.
